Laboratory results from patent US5118669A, “Peptides and intermediates therefor useful as antiallergic agents, vasodilators and immunoregulators” (Hitachi Chemical Co., Ltd., priority 1989, dated 1992).

Key:
[1] = test system: thoracic aorta of male rabbits contracted with norepinephrine; experiment: Vasodilating action on aortic spiral strip contracted with norepinephrine; design: species or system rabbit; conditions: norepinephrine contraction
Description: (§1) The thoracic aorta of male rabbits weighing 2.5-3 kg was excised and aortic specimens of spiral strip 25-30 mm in length were prepared. […] The specimen was cumulatively administered with H-Asp-Gly-Lys-OH, H Ser-Asp-Gly-Lys-OH, or H-Asp-Ser-Asp-Gly-Lys-OH or H-Ala-Asp-Ser-Asp-Gly-Lys-OH, and relaxation reaction of the blood vessel was observed. As comparative drug were employed nitroprusside (sodium salt) and verapamil.

[2] = test system: intraperitoneal mast cells of the rats; experiment: Inhibitory activity on histamine release from passively sensitized rat mast cells; type: cell-based; conditions: for inhibitory activity on histamine release: at a concentration of 10^-5 M or higher, FIG. 5-7; for potency of histamine release inhibition compared with H-Asp-Ser-Asp-Pro-Arg-OH: versus comparative drug H-Asp-Ser-Asp-Pro-Arg-OH; for potency of histamine release inhibition compared with cromoglycate: versus cromoglycate
Description: Male Wistar rats weighing 300-350 g were passively sensitized, and intraperitoneal mast cells of the rats were employed for the test. Rat antiserum used in the passive sensitization was prepared in accordance with the method of Mota [Immunology, 7, p. 681 (1964)] and the method of Hamaoka [J. Immunology, 113, p. 958 (1974)]. Male Wistar rats (weighing 200-250 g) each were injected ovalbumin (10 mg/kg) in a volume of 5 ml/kg intramuscularly on both thighs and simultaneously 2×10^10 cells of killed Bordetella pertussis were intraperitoneally administered to immunize the animal. Blood was drawn from the animal under ether anesthesia via the abdominal aorta on day 12 of the initial sensitization,from which antiserum was separated. The antiserum was lyophilized and stored at -20° C. Titer of the antiserum was assayed by the 48-hour rat PCA reaction. […] The anti-albumin IgE serum of the rat was two fold diluted, and 1 ml of the diluted serum was intraperitoneally administered to sensitize the animal. The rat was killed by blooding 48 hours after the sensitization, and 15 ml of a phosphate buffered saline (NaCl 8 g, KCl 0.2 g, Na2 HPO4.12H2 O 2.88 g, KH2 PO4 0.2 g, EDTA.2Na 0.2 g and bovine serum albumin 1 g, dissolved in purified water to make 1 liter, pH 7.4 (called PBS(-) hereinbelow) was intraperitoneally injected. The rat was then given light abdominal massage for about 2 min. and subjected to laparotomy to collect cells in the abdominal cavity. The cell suspension was centrifuged (1,000 rpm, 10 min.) and then resuspended in PBS(-). The PBS(-) suspension was overlayered on gum arabic density (specific gravity 1.075) followed by centrifugal separation (2,500 rpm, 10 min.). Deposited cells were washed with PBS(-) and suspended in fresh PBS(+)[a solution in which the EDTA 2Na in PBS(-) is replaced by 0.1 g of CaCl2, called PBS(+)] and adjusted to 1×10^5 cells/ml. The cell suspension was divided into silicone-treated test tubes in a volume of 0.8 ml/tube, which were then preincubated at 37° C. for 10 min. In the cell suspension-containing test tube was placed 0.1 ml of a test solution from various solutions diluted with PBS(+) followed by incubation at 37° C. for 15 min. To the test tube was then added 0.1 ml of a mixed solution of ovalbumin antigen (final concentration 1 mg/ml) and phosphatidyl-L-serine (final concentration 100 μm/ml) followed by incubation for additional 15 min. to release histamine. For cromoglycate, one of the comparative drugs, the drug was added 30 sec. prior to the addition of the antigen, and incubation was then made for additional 15 min. The reaction was terminated by addition of 1 ml of ice-cooled PBS(+), and the reaction mixture was centrifuged at 2,500 rpm for 10 min. To 2 ml of the supernatant was added 1 ml of a 4% solution of perchloric acid, and the mixture was assayed for free histamine. For the assay of total histamine, a sample was prepared by placing 0.8 ml of a suspension of untreated mast cells in boiling water for 10 min. followed by addition of 4% perchloric acid.
Amount of histamine in the sample was assayed by fluorimetry, and percent histamine release (%) was calculated by the equation [formula]

[3] = test system: lymphocytes (mononuclear cells from blood of a healthy adult); experiment: Blast formation of lymphocytes stimulated with various lectins (3H-thymidine uptake); type: cell-based, human (healthy adult); conditions: for uptake of 3H-thymine by the lymphocytes stimulated with a lectin: particularly Con-A; for uptake of 3H-thymine by the lymphocytes stimulated with a lectin / influence upon uptake of 3H-thymine by lymphocytes in the absence of a mitogen: summary of Tables 3-6; for influence upon uptake of 3H-thymine by lymphocytes in the absence of a mitogen: no mitogen
Description: Mononuclear cells were collected by the density centrifugal method from blood of a healthy adult drawn in the presence of heparin and suspended in an RPMI-1640 culture medium (manufactured by Gibco) containing 10% by volume of bovine fetus serum (called FBS, manufactured by Dainihon Seiyaku). The suspension, adjusted to a concentration of 1×10^6 cells/ml, was divided into a 96-well Falcon microplate (manufactured by Becton Dickinson) in a volume of 100 μl/well. Then, a lectin, 1 μg/ml of PHA (phytohemagglutinin), 10 μg/ml of Con-A (concanavalin A) or 15 μg/ml of PWM (pokeweed mitogen) and one of the captioned peptides at a predetermined concentration were added followed by addition of a 10% FBS containing RPMI-1640 medium to a final liquid volume of 200 μl. Cultivation was made in a 5% by volume CO2 incubator at 37° C. for 72 hours, and 24 hours before completion of the cultivation 5 μCi of ^3 H-thymidine was added. The cells were recovered by a cell harvester (manufactured by Bio-Lab), and uptake of the ^3 H-thymidine was measured by a scintillation counter. Results of the measurement are shown in Table 3-Table 6 wherein figures indicate mean count (cpm)±standard error.

[4] = test system: thoracic aorta of male rabbits contracted with potassium chloride; experiment: Vasodilating action on aortic spiral strip contracted with potassium chloride; design: species or system rabbit; conditions: potassium chloride contraction
Description: as §1

[5] = test system: IL-1; experiment: Productivity of humoral factors by lymphocytes: IL-1; type: cell-based, human (healthy adult); conditions: for IL-1: cultivation for a week, control 7.1; for production of IL-1: summary of Table 7
Description: (§2) Mononuclear cells separated by the density centrifugal method from blood of a healthy adult drawn in the presence of heparin were suspended in an RPMI-1640 culture medium containing 10% by volume of FBS. The suspension was divided into culture tubes (Falcon 2054) each at a concentration of 1×10^6 cells/ml, to which the captioned peptides were respectively added. Cultivation was made in an incubator for a week. After completion of the cultivation, the culture was centrifuged (1,500 rpm, 10 min.), and the supernatant collected and assayed for humoral factors. Interleukin 1 (IL-1) and tumor-nectrotizing factors were measured, respectively by a IL-1 radioimmunoassay kit (manufactured by Amersham International) and a TNF radioimmunoassay kit (manufactured by Medgenix). Measurement of interleukin 6 (IL-6) was made by the enzyme immunoassay method (ELISA) using IL-6 antibody (manufactured by Genzyme). Results of the measurements are shown in Table 7 wherein figures represent mean value±standard error.

[6] = test system: IL-6; experiment: Productivity of humoral factors by lymphocytes: IL-6; type: cell-based, human (healthy adult); conditions: for IL-6: cultivation for a week, control 270; for production of IL-6: summary of Table 7
Description: as §2

[7] = test system: TNF; experiment: Productivity of humoral factors by lymphocytes: TNF; type: cell-based, human (healthy adult); conditions: for TNF: cultivation for a week, control 2,020; for production of TNF: summary of Table 7
Description: as §2

[8] = Con-A (10 μg/ml), peptide 10^-6 M, control 37,800
[9] = Con-A (10 μg/ml), peptide 10^-8 M, control 37,800
[10] = PHA (1 μg/ml), peptide 10^-6 M, control 69,600
[11] = PHA (1 μg/ml), peptide 10^-8 M, control 69,600
[12] = PWM (15 μg/ml), peptide 10^-6 M, control 13,600
[13] = PWM (15 μg/ml), peptide 10^-8 M, control 13,600
[14] = mitogen None, peptide 10^-6 M, control 1,090
[15] = mitogen None, peptide 10^-8 M, control 1,090

Row | Substance | Percent relaxation ([1]; compound 10^-4 M) | Percent relaxation ([1]; compound 10^-5 M) | Percent relaxation ([1]; compound 10^-6 M) | Percent relaxation ([1]; compound 10^-7 M) | Percent relaxation ([1]; compound 10^-8 M) | inhibitory activity on histamine release [2] | potency of histamine release inhibition compared with H-Asp-Ser-Asp-Pro-Arg-OH [2] | potency of histamine release inhibition compared with cromoglycate [2] | Uptake of 3H-thymidine by lymphocytes [3, 8] | Uptake of 3H-thymidine by lymphocytes [3, 9] | Uptake of 3H-thymidine by lymphocytes [3, 10] | Uptake of 3H-thymidine by lymphocytes [3, 11] | Uptake of 3H-thymidine by lymphocytes [3, 12] | Uptake of 3H-thymidine by lymphocytes [3, 13] | uptake of 3H-thymine by the lymphocytes stimulated with a lectin [3] | Uptake of 3H-thymidine by lymphocytes [3, 14] | Uptake of 3H-thymidine by lymphocytes [3, 15] | influence upon uptake of 3H-thymine by lymphocytes in the absence of a mitogen [3] | Percent relaxation ([4]; compound 10^-4 M) | Percent relaxation ([4]; compound 10^-5 M) | further results
1 | H-Ser-Asp-Gly-Lys-OH (H-SDGK-OH) [tetrapeptide] | 52.6% | 25.0% | 17.7% | 9.1% | 1.7% | clear inhibitory activity | higher | nearly equal to or higher | 24,000 cpm | 24,200 cpm | 59,000 cpm | 62,100 cpm | 9,000 cpm | 10,000 cpm | strongly inhibit | 911 cpm | 1,436 cpm | little influence | 18.6% | 7.2% | Percent relaxation ([4]; compound 10^-6 M): 0%; Percent relaxation ([4]; compound 10^-7 M): 0%; Percent relaxation ([4]; compound 10^-8 M): 0%; IL-1 ([5]; additive 10^-6 M): 11.2 fM/ml; IL-1 ([5]; additive 10^-8 M): 10.7 fM/ml; production of IL-1 [5]: promote production; IL-6 ([6]; additive 10^-6 M): 280 U/ml; IL-6 ([6]; additive 10^-8 M): 350 U/ml; production of IL-6 [6]: promote production; TNF ([7]; additive 10^-6 M): 4,260 pg/ml; TNF ([7]; additive 10^-8 M): 3,620 pg/ml; production of TNF [7]: promote production
2 | H-Asp-Gly-Lys-OH [DGK] | 40.3% | 9.3% | 6.6% | 0% | 0% | clear inhibitory activity | higher | nearly equal to or higher | 16,700 cpm | 20,000 cpm | 62,500 cpm | 62,700 cpm | 9,590 cpm | 11,500 cpm | strongly inhibit | 925 cpm | 1,120 cpm | little influence | 11.2% | 5.6% | Percent relaxation ([4]; compound 10^-6 M): 0%; Percent relaxation ([4]; compound 10^-7 M): 0%; Percent relaxation ([4]; compound 10^-8 M): 0%; IL-1 ([5]; additive 10^-6 M): 9.5 fM/ml; IL-1 ([5]; additive 10^-8 M): 7.1 fM/ml; production of IL-1 [5]: promote production; IL-6 ([6]; additive 10^-6 M): 440 U/ml; IL-6 ([6]; additive 10^-8 M): 400 U/ml; production of IL-6 [6]: promote production; TNF ([7]; additive 10^-6 M): 4,730 pg/ml; TNF ([7]; additive 10^-8 M): 4,110 pg/ml; production of TNF [7]: promote production
